The values that follow come from publication PMC10707737, “Indole Diterpene Derivatives from the Aspergillus flavus GZWMJZ-288, an Endophytic Fungus from Garcinia multiflora” (Molecules, 2023).

“Also recorded” adds a separate entry of the source.

In the test the target is T1, NPC1L1 (Homo sapiens, UniProt Q9UHC9).
T1 sequence (Q9UHC9 22-1359): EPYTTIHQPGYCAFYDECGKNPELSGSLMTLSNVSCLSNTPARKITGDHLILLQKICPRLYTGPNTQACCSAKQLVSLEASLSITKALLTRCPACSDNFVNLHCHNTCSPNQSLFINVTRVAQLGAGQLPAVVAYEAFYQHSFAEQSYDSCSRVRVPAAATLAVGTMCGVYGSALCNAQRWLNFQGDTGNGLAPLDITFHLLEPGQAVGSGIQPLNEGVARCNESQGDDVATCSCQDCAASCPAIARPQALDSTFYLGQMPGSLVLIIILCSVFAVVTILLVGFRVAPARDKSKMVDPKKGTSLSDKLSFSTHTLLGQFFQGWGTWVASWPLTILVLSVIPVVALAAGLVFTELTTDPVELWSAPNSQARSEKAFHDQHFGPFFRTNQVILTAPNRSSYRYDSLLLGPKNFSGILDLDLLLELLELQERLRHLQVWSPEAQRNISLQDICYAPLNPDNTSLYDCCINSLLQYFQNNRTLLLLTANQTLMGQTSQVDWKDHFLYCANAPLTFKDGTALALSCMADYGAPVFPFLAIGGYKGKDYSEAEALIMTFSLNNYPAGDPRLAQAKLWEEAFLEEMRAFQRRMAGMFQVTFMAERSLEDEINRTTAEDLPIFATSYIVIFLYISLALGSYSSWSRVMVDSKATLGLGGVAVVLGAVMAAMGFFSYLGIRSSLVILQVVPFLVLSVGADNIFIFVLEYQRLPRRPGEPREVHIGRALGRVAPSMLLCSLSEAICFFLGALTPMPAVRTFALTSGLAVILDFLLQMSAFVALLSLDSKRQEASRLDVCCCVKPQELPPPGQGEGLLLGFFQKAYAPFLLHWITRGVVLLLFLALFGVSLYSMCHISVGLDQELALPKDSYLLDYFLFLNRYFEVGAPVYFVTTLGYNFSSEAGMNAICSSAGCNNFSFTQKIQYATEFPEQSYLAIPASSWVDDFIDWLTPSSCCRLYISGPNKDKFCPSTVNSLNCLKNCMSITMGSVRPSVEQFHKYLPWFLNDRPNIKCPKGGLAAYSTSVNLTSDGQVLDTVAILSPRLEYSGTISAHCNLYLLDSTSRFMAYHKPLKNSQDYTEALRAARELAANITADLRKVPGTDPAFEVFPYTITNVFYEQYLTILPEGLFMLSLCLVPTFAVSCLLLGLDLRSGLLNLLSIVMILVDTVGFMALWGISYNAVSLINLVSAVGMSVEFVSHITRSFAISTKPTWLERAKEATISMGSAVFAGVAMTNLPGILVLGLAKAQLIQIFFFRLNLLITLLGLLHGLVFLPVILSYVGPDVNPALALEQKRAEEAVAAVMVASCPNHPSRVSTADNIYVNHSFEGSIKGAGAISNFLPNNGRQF
In words: Combining ability test with NPC1L1 (SPR, Biacore). Format: binding. The following applies: fixed concentration 10 μM; ezetimibe positive control. On the procedure: NPC1L1 is currently considered to be the key protein for cholesterol absorption. It is impossible to evaluate the activity of targeting compounds on NPC1L1 through colorimetry assay due to NPC1L1′s lack of catalytic activity. The experiment was carried out under fixed concentration at 10 μM with ezetimibe as a positive control. Excess reactive esters on the sensor chip surface were blocked with 1 M ethanolamine (pH 8.5) for 7 min. The flow cell used for reference was activated and blocked as described above but remained uncoupled. Binding is typically reported in response units (RUs), which is defined as the response obtained from the flow cell containing the immobilized receptor minus the response obtained from the reference flow cell. CM5 series sensor chips and coupling reagents EDC and NHS were purchased from GE. The surface of the flow cell was activated for 7 min using a 1:1 mixture of 100 mM EDC and 100 mM NHS at a flow rate of 10 μL/mi. Subsequently, the corresponding proteins were injected over the surface for 7 min using the time and flow method (final immobilization level: 15,000 RU). Excess reactive esters on the sensor chip surface were blocked with 1 M ethanolamine (pH 8.5) for 7 min. The ability of compounds to combine with NPC1L1 protein was determined by the response value.
Regarding `CC(=O)OCC(C)C1=C(c2c[nH]c3ccccc23)C2C(C)CC(O)C3(C)C(C)CCC(O)C23CC1` (stereo not drawn) [Compound 1, 26-dihydroxyaflavininyl acetate], the “binding ability with NPC1L1 (SPR response)” value (“binding ability with NPC1L1” below) is “could bind well with NPC1L1; also recorded: comparable binding ability with NPC1L1”.

`CC(C)C1=C(c2c[nH]c3ccccc23)[C@@H]2[C@H](C)CC[C@@]3(C)[C@H](C)CC[C@H](O)C23CC1` (stereo partly drawn) [Compound 6, aflavinine]: the “binding ability with NPC1L1” value was “could bind well with NPC1L1; also recorded: stronger than that of ezetimibe; also recorded: stronger binding ability with NPC1L1 than ezetimibe”.

In the case of `C=C(C)C1CCC23[C@H](C1c1c[nH]c4ccccc14)[C@H](C)C[C@@H](O)[C@@]2(C)[C@H](C)CC[C@@H]3O` (stereo partly drawn) [Compound 4, 14-eoi-14-hydroxy10,23-dihydro-24,25-dehydroaflavinine], the “binding ability with NPC1L1” value was “could bind well with NPC1L1; also recorded: comparable binding ability with NPC1L1”.
